Data on 17 molecules can be found in PubChem BioAssay (NCI).

Some test systems named below: UO-31 renal; K-562 leukemia; LOX IMVI melanoma; A549 NSCLC; KM12 colon; TK-10 renal; NCI-H522 lung; COLO 205 colon.
Common to all, as to experiment: NCI tumour cell line growth inhibition, 48 h

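All cell lines were grown in 96-well plates and treated with compound for 48 hours. GI50 is the concentration that inhibits growth by half. TGI: total growth inhibition.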

Turning to `O=c1[nH]nc(-c2ccccc2)n1/N=C/c1cccnc1`, the TGI with UO-31 renal, in the test on K-562 leukemia, with LOX IMVI melanoma, in the test on A549 NSCLC, in the test on KM12 colon and in the test with TK-10 renal was above 100 µM in each case. Also, in the test with NCI-H522 lung, the TGI was above 100 µM.

For the molecule `CC[N+]1(C)CCC(O)(c2ccc(Cl)c(Cl)c2)C(C(=O)c2ccc(Cl)c(Cl)c2)C1` (stereo unspecified), the TGI in the test on UO-31 renal, in the test with K-562 leukemia, in the test with LOX IMVI melanoma, in the test with A549 NSCLC, in the test with COLO 205 colon and with KM12 colon was above 10 µM each time. For the same molecule, the TGI with TK-10 renal is above 10 µM; in the test on NCI-H522 lung, 7.44 µM.

For `COc1ccc(/C=C2\S/C(=N/Nc3nc(-c4ccccc4)cs3)NC2=O)cc1OC`, the TGI in the test with UO-31 renal was 51.7 µM; in the test with LOX IMVI melanoma it was 65.6 µM; with A549 NSCLC it was above 100 µM; in the test on COLO 205 colon it was above 100 µM; with KM12 colon, 82.2 µM; in the test with TK-10 renal, 59.4 µM. This molecule showed a TGI in the test with NCI-H522 lung of 47.4 µM.

For the molecule `CCOP(=O)(OCC)C1CC(n2cc(C)c(=O)[nH]c2=O)OC1CO` (stereo unspecified), the TGI in the test on UO-31 renal, with K-562 leukemia, with LOX IMVI melanoma, with A549 NSCLC, with KM12 colon and with TK-10 renal was above 100 µM each time. This molecule came in with a TGI with NCI-H522 lung above 100 µM.

On to `c1cn(C23C4C5C6C4C2C6C53)cn1` (stereo unspecified), for which the TGI with K-562 leukemia, with LOX IMVI melanoma, with A549 NSCLC, in the test on COLO 205 colon, in the test with KM12 colon and with TK-10 renal was above 100 µM throughout. Further, the TGI in the test on NCI-H522 lung is above 100 µM.

Take `C=C(C)C(O)C(O)c1c(OC)ccc2ccc(=O)oc12` (stereo unspecified): the TGI with UO-31 renal, in the test with K-562 leukemia, with A549 NSCLC, in the test on COLO 205 colon, in the test on KM12 colon and in the test on TK-10 renal was above 100 µM in each case. The same molecule returned a TGI in the test on NCI-H522 lung above 100 µM.

Consider `COC(=O)[C@H]1CO[C@H]2C/C(C)=C/CC/C(C)=C/CC[C@@]3(C)O[C@@H]3C[C@H]21`, for which the TGI in the test with UO-31 renal was above 50 µM; in the test on K-562 leukemia, 16.1 µM; in the test with A549 NSCLC it was above 50 µM; in the test with COLO 205 colon, 22.6 µM; in the test with KM12 colon, 18.4 µM; in the test with TK-10 renal, above 50 µM. For the same molecule, the TGI in the test with NCI-H522 lung is 18.8 µM.

Turning to `COC1OC2COC1(OC)C1OC(C)(C)OC21` (stereo unspecified), the TGI in the test with UO-31 renal, with K-562 leukemia, with A549 NSCLC, in the test with COLO 205 colon, in the test on KM12 colon and in the test on TK-10 renal was above 100 µM in each case. For the same molecule, the TGI in the test on NCI-H522 lung was above 100 µM.

As for `O=C(c1cc(Cl)ccc1Cl)N1CCN(C(=O)c2cc(Cl)ccc2Cl)CC1`, the TGI with UO-31 renal, with K-562 leukemia, in the test with LOX IMVI melanoma, with A549 NSCLC, in the test on KM12 colon and in the test with TK-10 renal was above 100 µM each time. In addition, in the test with NCI-H522 lung, the TGI is above 100 µM.

Consider `O=C1c2cc3c(cc2CC12Cc1ccc4c(c1C2=O)CCCC4)CCCC3` (stereo unspecified), for which the TGI in the test with UO-31 renal, in the test on K-562 leukemia, in the test on LOX IMVI melanoma, in the test on A549 NSCLC, in the test with TK-10 renal and with NCI-H522 lung was above 100 µM each time.

For `C[C@H]1C[C@H]2[C@@H]3C(C)(C)O[C@]4(O)C(=O)[C@]5(O)[C@@H](C)CC[C@H]1[C@]25C(=O)[C@]34C`, the TGI with UO-31 renal is above 100 µM; with K-562 leukemia, above 100 µM; in the test on LOX IMVI melanoma it was above 100 µM; with A549 NSCLC, above 100 µM; in the test on COLO 205 colon, 38.6 µM; in the test with KM12 colon, 99.7 µM. Moreover, in the test with NCI-H522 lung, the TGI stood at 48 µM.

Consider `CCCCCC(C)SC1(C(=O)OC)CC(OC(C)=O)C(NC(C)=O)C([C@H](OC(C)=O)[C@@H](COC(C)=O)OC(C)=O)O1` (stereo partly specified), for which the TGI in the test on UO-31 renal, in the test with K-562 leukemia, with A549 NSCLC, in the test on KM12 colon, with TK-10 renal and in the test on NCI-H522 lung was above 100 µM throughout.

For `CC1=NN(c2nc(N)nc(/C(C#N)=C/c3cccn3-c3cc(Cl)cc(Cl)c3)n2)C(C)(C)C1`, the TGI in the test with UO-31 renal, in the test on LOX IMVI melanoma, with A549 NSCLC, with COLO 205 colon, in the test on KM12 colon and in the test with TK-10 renal was above 100 µM in each case. The same molecule yielded a TGI in the test on NCI-H522 lung above 100 µM.

For the molecule `COc1ccc(-c2cc(-c3cc4cc(Br)ccc4nc3Cl)c(C#N)c(N)n2)cc1`, the TGI in the test with UO-31 renal, with K-562 leukemia, in the test on LOX IMVI melanoma, in the test on A549 NSCLC, with COLO 205 colon and with KM12 colon was above 12.5 µM throughout. For the same molecule, the TGI with NCI-H522 lung is above 12.5 µM.

For `CC(=O)Oc1c2oc3ccc(Cl)cc3c(=O)c2c(O)c2ccsc12`, the TGI in the test with UO-31 renal, with K-562 leukemia, in the test with LOX IMVI melanoma, with A549 NSCLC, with COLO 205 colon and in the test on KM12 colon was above 100 µM in each case. Further, in the test with TK-10 renal, the TGI is above 100 µM.

For the molecule `COc1ccc(C(=O)/C=C/c2c(Cl)c3c(c(OC)c2Cl)OCC(=O)N3)cc1`, the GI50 with K-562 leukemia is 1.85 µM; with LOX IMVI melanoma, 1.36 µM; in the test on A549 NSCLC, 3.61 µM; with TK-10 renal it was 2.55 µM; in the test on NCI-H522 lung it was 1.55 µM. The TGI was 7.73 µM with K-562 leukemia; 2.88 µM with LOX IMVI melanoma; above 100 µM with A549 NSCLC; 6.09 µM in the test on TK-10 renal; 3.24 µM with NCI-H522 lung.

In the case of `N#Cc1c(-c2ccc(Cl)cc2)c2c(n(C3OC(CO)C(O)C(O)C3O)c1=S)CCC2` (stereo unspecified), the TGI was above 100 µM in the test on UO-31 renal; 38.5 µM with K-562 leukemia; 34.3 µM with LOX IMVI melanoma; above 100 µM in the test with A549 NSCLC; 63.8 µM in the test on COLO 205 colon; above 100 µM in the test with KM12 colon. This molecule displayed a TGI in the test on TK-10 renal above 100 µM.
